Patent US10710994B2, “Oxadiazole transient receptor potential channel inhibitors” (Genentech, Inc., priority 2018, dated 2020)
Like-named read-outs stand apart in the source and are kept apart here.

Biological target: human TRPA1 channel (Homo sapiens (Human), UniProt O75762)
Assay: hTRPA1 CHO Ca2+ FLIPR Tetra assay: block of cinnamaldehyde induced calcium influx
Type: cell-based
Details: CHO cells expressing TRPA1, Hill coefficient fixed to 1.5
Experimental: CHO cells expressing TRPA1 were plated into 384-well plates, incubated overnight at 37° C., and loaded with BD calcium indicator dye for 1 hr at 37° C. followed by 15 minutes at room temperature. The assay buffer was Hank's Balanced Salt Solution (HBSS) containing 20 mM HEPES (pH readjusted to 7.4) along with 0.02% BSA.
Following dye load and plate cool down, compounds were added to the cells using FLIPR Tetra. Plates were then incubated with compounds for 10 minutes or 90 minutes at room temperature prior to adding agonist. Following this incubation, about an EC80 concentration of cinnamaldehyde […] was added to active the channels and block of cinnamaldehyde induced calcium influx was measured.
Fixing the Hill coefficient will generally reduce variability of the IC50 determination. The IC50 results were individually examined to make sure the MIN and MAX points were set correctly prior to validation of the results.

[1] = read-out: hTRPA1 IC50 10 min, 10 minutes incubation with compound before cinnamaldehyde (about EC80)
[2] = read-out: hTRPA1 IC50 90 min, 90 minutes incubation with compound before cinnamaldehyde (about EC80)

Chain of human TRPA1 channel (O75762 whole entry): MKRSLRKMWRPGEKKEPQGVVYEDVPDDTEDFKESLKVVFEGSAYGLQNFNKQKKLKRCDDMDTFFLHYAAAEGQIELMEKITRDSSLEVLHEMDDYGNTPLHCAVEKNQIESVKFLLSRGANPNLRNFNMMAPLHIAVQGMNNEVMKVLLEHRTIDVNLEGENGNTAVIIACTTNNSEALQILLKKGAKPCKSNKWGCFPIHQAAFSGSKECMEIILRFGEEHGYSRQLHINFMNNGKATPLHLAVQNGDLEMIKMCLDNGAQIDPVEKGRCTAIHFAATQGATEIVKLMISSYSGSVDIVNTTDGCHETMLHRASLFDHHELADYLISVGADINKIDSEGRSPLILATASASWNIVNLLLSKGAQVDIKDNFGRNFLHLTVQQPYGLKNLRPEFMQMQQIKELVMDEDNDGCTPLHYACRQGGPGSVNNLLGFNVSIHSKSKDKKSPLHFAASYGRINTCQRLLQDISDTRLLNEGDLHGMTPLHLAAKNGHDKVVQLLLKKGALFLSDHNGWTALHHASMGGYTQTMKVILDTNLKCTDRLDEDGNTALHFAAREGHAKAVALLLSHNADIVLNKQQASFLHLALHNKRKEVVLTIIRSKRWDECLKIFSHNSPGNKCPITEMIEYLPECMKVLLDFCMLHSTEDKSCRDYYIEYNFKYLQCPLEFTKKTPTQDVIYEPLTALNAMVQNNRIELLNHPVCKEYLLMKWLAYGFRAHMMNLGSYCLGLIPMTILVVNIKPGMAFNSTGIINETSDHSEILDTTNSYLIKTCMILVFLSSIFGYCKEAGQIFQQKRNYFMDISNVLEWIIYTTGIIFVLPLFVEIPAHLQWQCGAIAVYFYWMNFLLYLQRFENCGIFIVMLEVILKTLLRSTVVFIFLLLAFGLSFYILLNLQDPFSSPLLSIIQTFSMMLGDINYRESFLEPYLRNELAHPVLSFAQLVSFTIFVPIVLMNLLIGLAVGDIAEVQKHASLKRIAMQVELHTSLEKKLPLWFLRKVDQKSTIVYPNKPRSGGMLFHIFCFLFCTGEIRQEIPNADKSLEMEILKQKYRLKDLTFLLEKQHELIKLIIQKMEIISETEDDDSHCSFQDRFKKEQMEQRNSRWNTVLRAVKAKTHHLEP

Cc1cnn2nc(N)n(Cc3nc([C@@H]4CO[C@@H](c5ccc(F)cc5)C4)no3)c(=O)c12 [Example 3, 2-amino-3-((3-((3R,5R)-5-(4-fluorophenyl)tetrahydrofuran-3-yl)-1,2,4-oxadiazol-5-yl)methyl)-5-methylpyrazolo[5,1-f][1,2,4]triazin-4(3H)-one]
IC50 [1]: 5.02 nM
IC50 [2]: 1.3 nM

Cn1cnc2[nH]c(=O)n(Cc3nc([C@@H]4CO[C@@H](c5ccc(Cl)cc5)C4)no3)c(=O)c21 [Example 7, 1-((3-((3R, 5R)-5-(4-chlorophenyl)-tetrahydrofuran-3-yl)-1,2,4-oxadiazol-5-yl)methyl)-7-methyl-1H-purine-2,6(3H,7H)-dione]
IC50 [1]: 313 nM
IC50 [2]: 23 nM

Cc1nc2ncn(C)c2c(=O)n1Cc1nc([C@@H]2CO[C@@H](c3ccc(Cl)cc3)C2)no1 [Example 8, 1-((3-((3R,5R)-5-(4-chlorophenyl)tetrahydrofuran-3-yl)-1,2,4-oxadiazol-5-yl)methyl)-2,7-dimethyl-1H-purin-6(7H)-one]
IC50 (hTRPA1 IC50 10 min, 10 minutes incubation with compound before cinnamaldehyde (about EC80)): 9.38 nM
IC50 [2]: 4.1 nM

Cn1c(=O)[nH]c2ncn(Cc3nc([C@@H]4CO[C@@H](c5ccc(Cl)cc5)C4)no3)c(=O)c21 [Example 9, 1-((3-((3R, 5R)-5-(4-chlorophenyl)-tetrahydrofuran-3-yl)-1,2,4-oxadiazol-5-yl)methyl)-7-methyl-1H-purine-6,8(7H,9H)-dione]
IC50 [1]: 40.4 nM
IC50 [2]: 11 nM

Cn1cnc2ncn(Cc3nc([C@@H]4CO[C@@H](c5cccc(F)c5)C4)no3)c(=O)c21 [Example 10, 1-((3-((3R,5R)-5-(3-fluorophenyl)tetra-hydrofuran-3-yl)-1,2,4-oxadiazol-5-yl)methyl)-7-methyl-1,7-dihydro-6H-purin-6-one]
IC50 [1]: 27.4 nM
IC50 [2]: 17 nM

O=c1c2cccnc2cnn1Cc1nc([C@@H]2CO[C@@H](c3ccc(F)cc3)C2)no1 [Example 11, 6-((3-((3R,5R)-5-(4-fluorophenyl)tetra-hydrofuran-3-yl)-1,2,4-oxadiazol-5-yl)methyl)pyrido[2,3-d]pyridazin-5(6H)-one]
IC50 [1]: 16.6 nM
IC50 [2]: 13 nM

Cn1nnc2ncn(Cc3nc([C@@H]4CO[C@@H](c5ccc(F)cc5)C4)no3)c(=O)c21 [Example 12, 6-((3-((3R,5R)-5-(4-fluorophenyl)tetra-hydrofuran-3-yl)-1,2,4-oxadiazol-5-yl)methyl)-1-methyl-1,6-dihydro-7H-[1,2,3]triazolo[4,5-d]pyrimidin-7-one]
IC50 [1]: 7.55 nM
IC50 [2]: 3.4 nM

Cn1cnc2ncn(Cc3nc([C@@H]4CO[C@@H](c5ccccc5)C4)no3)c(=O)c21 [Example 13, 7-methyl-1-((3-((3R,5R)-5-phenyltetrahydrofuran-3-yl)-1,2,4-oxadiazol-5-yl)methyl)-1,7-dihydro-6H-purin-6-one]
IC50 [1]: 82.3 nM
IC50 [2]: 33 nM

Cn1cnc2ncn(Cc3nc([C@@H]4CO[C@@H](c5ccccc5Cl)C4)no3)c(=O)c21 [Example 14, 1-((3-((3R,5R)-5-(2-chlorophenyl)tetra-hydrofuran-3-yl)-1,2,4-oxadiazol-5-yl)methyl)-7-methyl-1,7-dihydro-6H-purin-6-one]
IC50 [1]: 335 nM
IC50 [2]: 160 nM

Cn1cnc2ncn(Cc3nc([C@@H]4CO[C@@H](c5ccccc5F)C4)no3)c(=O)c21 [Example 15, 1-((3-((3R,5R)-5-(2-fluorophenyl)tetrahydro-furan-3-yl)-1,2,4-oxadiazol-5-yl)methyl)-7-methyl-1,7-dihydro-6H-purin-6-one]
IC50 [1]: 127 nM
IC50 [2]: 59 nM

Cn1nnc2ncn(Cc3nc([C@@H]4CO[C@@H](c5ccc(Cl)cc5)C4)no3)c(=O)c21 [Example 16, 6-((3-((3R,5R)-5-(4-chlorophenyl)tetra-hydrofuran-3-yl)-1,2,4-oxadiazol-5-yl)methyl)-1-methyl-1,6-dihydro-7H-[1,2,3]triazolo[4,5-d]pyrimidin-7-one]
IC50 [1]: 4.9 nM
IC50 [2]: 2.7 nM

Cn1cnc2ncn(Cc3nc([C@@H]4CO[C@@H](c5cccc(Cl)c5)C4)no3)c(=O)c21 [Example 17, 1-((3-((3R,5R)-5-(3-chlorophenyl)tetrahydro-furan-3-yl)-1,2,4-oxadiazol-5-yl)methyl)-7-methyl-1,7-dihydro-6H-purin-6-one]
IC50 [1]: 29.5 nM
IC50 [2]: 14 nM

Cn1cnc2ncn(Cc3nc([C@@H]4CO[C@@H](c5ccc(F)c(F)c5)C4)no3)c(=O)c21 [Example 18, 1-((3-((3R,5R)-5-(3,4-difluorophenyl)tetra-hydrofuran-3-yl)-1,2,4-oxadiazol-5-yl)methyl)-7-methyl-1,7-dihydro-6H-purin-6-one]
IC50 [1]: 173 nM
IC50 [2]: 130 nM

Cn1cnc2ncn(Cc3nc([C@@H]4CO[C@@H](c5ccc(OC(F)F)cc5)C4)no3)c(=O)c21 [Example 19, 1-((3-((3R,5R)-5-(4-(difluoromethoxy)phenyl)tetrahydrofuran-3-yl)-1,2,4-oxadiazol-5-yl)methyl)-7-methyl-1,7-dihydro-6H-purin-6-one]
IC50 [1]: 150 nM
IC50 [2]: 110 nM

Cc1ccnc2ncn(Cc3nc([C@@H]4CO[C@@H](c5ccc(F)cc5)C4)no3)c(=O)c12 [Example 20, 3-((3-((3R,5R)-5-(4-fluorophenyl)tetrahydro-furan-3-yl)-1,2,4-oxadiazol-5-yl)methyl)-5-methylpyrido[2,3-d]pyrimidin-4(3H)-one]
IC50 [1]: 7.05 nM
IC50 [2]: 3.6 nM

Cn1cnc2ncn(Cc3nc([C@@H]4CO[C@@H](c5ccc(OC(F)(F)F)cc5)C4)no3)c(=O)c21 [Example 21, 7-methyl-1-((3-((3R,5R)-5-(4-(trifluoromethoxy)phenyl)tetrahydro-furan-3-yl)-1,2,4-oxadiazol-5-yl)methyl)-1,7-dihydro-6H-purin-6-one]
IC50 [1]: 98.5 nM
IC50 [2]: 67 nM

Cn1c(N)nc2ncn(Cc3nc([C@@H]4CO[C@@H](c5ccc(F)cc5)C4)no3)c(=O)c21 [Example 22, 8-amino-1-((3-((3R,5R)-5-(4-fluorophenyl)tetrahydro-furan-3-yl)-1,2,4-oxadiazol-5-yl)methyl)-7-methyl-1,7-dihydro-6H-purin-6-one]
IC50 [1]: 126 nM
IC50 [2]: 19 nM

Cn1cnc2c(C#N)nn(Cc3nc([C@@H]4CO[C@@H](c5ccc(Cl)cc5)C4)no3)c2c1=O [Example 23, 1-((3-((3R,5R)-5-(4-chlorophenyl)tetrahydro-furan-3-yl)-1,2,4-oxadiazol-5-yl)methyl)-6-methyl-7-oxo-6,7-dihydro-1H-pyrazolo[4,3-d]pyrimidine-3-carbonitrile]
IC50 [1]: 45.7 nM
IC50 [2]: 24 nM

O=c1c2cccnc2cnn1Cc1nc([C@@H]2CO[C@@H](c3ccc(Cl)cc3)C2)no1 [Example 24, 6-((3-((3R,5R)-5-(4-chlorophenyl)tetrahydro-furan-3-yl)-1,2,4-oxadiazol-5-yl)methyl)pyrido[2,3-d]pyridazin-5(6H)-one]
IC50 [1]: 7.2 nM
IC50 [2]: 4.9 nM

O=c1c2cccnc2ncn1Cc1nc([C@@H]2CO[C@@H](c3ccc(Cl)cc3)C2)no1 [Example 25, 3-((3-((3R,5R)-5-(4-chlorophenyl)tetrahydro-furan-3-yl)-1,2,4-oxadiazol-5-yl)methyl)pyrido[2,3-d]pyrimidin-4(3H)-one]
IC50 [1]: 6.55 nM
IC50 [2]: 5.7 nM

Cn1c(N)nc2ncn(Cc3nc([C@@H]4CO[C@@H](c5ccc(Cl)cc5)C4)no3)c(=O)c21 [Example 26, 8-amino-1-((3-((3R,5R)-5-(4-chlorophenyl)tetrahydro-furan-3-yl)-1,2,4-oxadiazol-5-yl)methyl)-7-methyl-1,7-dihydro-6H-purin-6-one]
IC50 [1]: 58.7 nM
IC50 [2]: 9.7 nM

Cc1ccc([C@H]2C[C@H](c3noc(Cn4cnc5ncn(C)c5c4=O)n3)CO2)cc1 [Example 27, 7-methyl-1-((3-((3R,5R)-5-(p-tolyl)tetrahydrofuran-3-yl)-1,2,4-oxadiazol-5-yl)methyl)-1,7-dihydro-6H-purin-6-one]
IC50 [1]: 16.1 nM
IC50 [2]: 5.7 nM

Nc1ccc2c(=O)n(Cc3nc([C@@H]4CO[C@@H](c5ccc(Cl)cc5)C4)no3)cnc2n1 [Example 28, 7-amino-3-((3-((3R,5R)-5-(4-chlorophenyl)tetrahydro-furan-3-yl)-1,2,4-oxadiazol-5-yl)methyl)pyrido[2,3-d]pyrimidin-4(3H)-one]
IC50 [1]: 6.32 nM
IC50 [2]: 3.9 nM

Cn1cnc2ncn(Cc3nc([C@@H]4CO[C@@H](c5ccc(Br)cc5)C4)no3)c(=O)c21 [Example 29, 1-((3-((3R,5R)-5-(4-bromophenyl)tetra-hydrofuran-3-yl)-1,2,4-oxadiazol-5-yl)methyl)-7-methyl-1,7-dihydro-6H-purin-6-one]
IC50 [1]: 7.83 nM
IC50 [2]: 1.8 nM

Cn1cnc2ncn(Cc3nc([C@@H]4CO[C@@H](c5ccc(-c6ccccc6)cc5)C4)no3)c(=O)c21 [Example 30, 1-((3-((3R,5R)-5-[(1,1′-biphenyl]-4-yl)tetrahydrofuran-3-yl)-1,2,4-oxadiazol-5-yl)methyl)-7-methyl-1,7-dihydro-6H-purin-6-one]
IC50 [1]: 623 nM
IC50 [2]: 370 nM
